Mass density data for four molecules are collected here from the NIST ThermoML archive (doi:10.1016/j.jct.2004.04.010).

The nature of the series: mn = molality of the nth substance listed, in mol/kg. The settings on record: 298.15 K, 101.3 kPa, Liquid.

Numbers after ± are expanded uncertainties.

One may read the mass density as the mass of a sample divided by its volume. With `[Cl-].[Cs+]` [cesium chloride] + O, the mass density came out at 998.969 ± 0.14 kg/m3 (m1 = 0.015); 1000.88 ± 0.14 kg/m3 (m1 = 0.03); 1003.43 ± 0.14 kg/m3 (m1 = 0.05); 1006.61 ± 0.14 kg/m3 (m1 = 0.075); 1009.77 ± 0.15 kg/m3 (m1 = 0.1).

Turning to `O=C[C@H](O)[C@@H](O)[C@@H](O)[C@H](O)CO` [(+)-galactose] + O, the mass density is 1010.68 ± 0.22 kg/m3 (m1 = 0.2); 1023.7 ± 0.28 kg/m3 (m1 = 0.4); 1036.15 ± 0.33 kg/m3 (m1 = 0.6); 1047.98 ± 0.39 kg/m3 (m1 = 0.8); 1059.4 ± 0.45 kg/m3 (m1 = 1); 1070.22 ± 0.5 kg/m3 (m1 = 1.2).

Take `O=C[C@H](O)[C@@H](O)[C@H](O)CO` [D-xylose] + O: the mass density (m1 = 0.2) was 1007.72 ± 0.21 kg/m3; the mass density (m1 = 0.4) worked out at 1017.95 ± 0.26 kg/m3; the mass density (m1 = 0.6) worked out at 1027.8 ± 0.3 kg/m3; the mass density (m1 = 0.8) came to 1037.28 ± 0.35 kg/m3; the mass density (m1 = 1) turned out to be 1046.38 ± 0.39 kg/m3; the mass density (m1 = 1.2) is 1055.19 ± 0.44 kg/m3.

Consider `O=C[C@@H](O)[C@H](O)[C@H](O)CO` [D-(-)-arabinose] + O, for which the mass density (m1 = 0.2) was 1008.06 ± 0.2 kg/m3; the mass density (m1 = 0.4) is recorded as 1018.64 ± 0.22 kg/m3; the mass density (m1 = 0.6) was 1028.67 ± 0.23 kg/m3; the mass density (m1 = 0.8) was determined as 1038.38 ± 0.24 kg/m3; the mass density (m1 = 1) amounted to 1047.69 ± 0.24 kg/m3; the mass density (m1 = 1.2) turned out to be 1056.36 ± 0.27 kg/m3.
